Consider four compounds from patent US20240307374A1, “FORMULATION OF FURIN INHIBITOR FOR INHALATION” (BP ASSET V, INC., priority 2021, published 2024).

SMILES strings stand for the structures. In brackets after ≈: the same amount, converted by molar mass. Several values for one entry are separate records, joined by “and”; a condition that tells them apart may be missing. Equal values may be shown once. Entries after “also recorded” stand apart in the source; their conditions may differ.

Data set [1] in a line: Phase I PK study, intranasal, cotton rats (plasma, lungs, BAL). The format is in vivo, Sigmodon hispidus cotton rats. The source says: (§1) Fifty (50) inbred, 6-8 week old, Sigmodon hispidus female and male cotton rats (source: Sigmovir Biosystems, Inc., Rockville MD) were maintained and handled under veterinary supervision in accordance with the National Institutes of Health guidelines and Sigmovir Institutional Animal Care and Use Committee's approved animal study protocol (IACUC Protocol #15). Fifteen animals were used in Phase I and 35 animals in Phase II studies. Each group of 5 animals included 3 females (the first three animals in each group) and 2 males (the last 2 animals in each group). Groups of even number of animals included equal number of males and females. Cotton rats were housed in clear polycarbonate cages and provided with standard rodent chow (Harlan #7004) and tap water ad lib.
To prepare excipient solution, 125 mg of citric acid anhydrous and 972 mg of lactose anhydrous were dissolved in water by adding 6 ml to the powder. The solution was vortexed. Final volume was adjusted to 10 mL with water for final concentration of 65 mM citric acid anhydrous and 284 mM lactose anhydrous. The solution was stored at 4±2° C.
(§2) Step 1. Divided 15 young S. hispidus (6-8 week old) between 3 groups (3 females and 2 males per group). Eartaged, weighed, and eyebleed all animals under isoflurane anesthesia for serum and plasma. Treated all animals intranasally with the solution indicated in Table 8-1 below, 5 0 μl/100 g animal (administered in both nostrils).
(§3) Step 2. Measured weight, collected clinical observations (e.g., changes in appearance, movement, posture), and repeated treatments on all animals as in Step 1.
Step 3. Measured weight, collected clinical observations (e.g., changes in appearance, movement, posture), and repeated treatments on all animals as in Step 1.
Step 4. Measured weight, collected clinical observations (e.g., changes in appearance, movement, posture), and repeated treatments on all animals as in Step 1.
Step 5. Measured weight, collected clinical observations, and repeated treatment on all animals as described in Step 1. After 1 h Step 6, terminally bled one animal from each group, followed by the necropsy with gross pathology examination and collection of BAL (right lung) and lung samples (left lung) for the PK assessment. After 3 h Step 7, terminally bled the second animal from each group, followed by the necropsy with gross pathology examination and collection of BAL and lung samples for the PK assessment.
Step 8. Terminally bled the third animal from each group, followed by the necropsy with gross pathology examination and collection of BAL and lung samples for the PK assessment.
Step 9. […]
Step 10. Measured weight and collected clinical observations on the remaining animals. […]

Data set [2] can be described thus: Tolerability (weight, clinical observations, gross pathology) in the Phase I study. Type of data set: in vivo, Sigmodon hispidus cotton rats.
From the text: as §1, §2, §3
Step 5. Measured weight, collected clinical observations, and repeated treatment on all animals as described in Step 1. […]

A short description of data set [3]: XRPD before and after drying (form stability on drying). The format is physicochemical. Conditions: wet cake, vacuum drying at RT for about 3 hours.
Data set [4] is described as follows: Solubility of freeform in acetone/H2O systems with various water activities. Type of data set: physicochemical. Conditions: thermodynamic from solid. The procedure: (§4) To measure the solubility of freeform in acetone/H2O systems with various water activities, the above experiments were re-performed with addition of aw=0.3 acetone/H2O system. The suspension sample was centrifuged to obtain precipitate and supernatants. Solubility was tested for the supernatants after filtration, and isolated precipitate was tested by XRPD.

Data set [5] is described as follows: Thermodynamic relationships study: slurry competition in acetone/H2O systems. Type of data set: physicochemical. Conditions: RT. The protocol:
Slurry competition was conducted in acetone/H2O systems with various water activities (0.0-1.0). […] Solids were separated and tested by XRPD.
as §4
Solids were separated and tested by XRPD.

The nature of data set [6]: DVS (dynamic vapor sorption) moisture uptake. The format is physicochemical. The procedure: (FIG. 5). Sample weight decreased rapidly when humidity decreased from 10% to 0%, which might be caused by loss of crystalline water.
DVS was measured via a SMS (Surface Measurement Systems) DVS Intrinsic.

Data set [7] is described as follows: Equilibrium solubility in pH buffers (pH 4.0-6.0) with pH adjustment. Type of data set: physicochemical. Conditions: pH = 4.0 buffer (50 mM citrate), RT, with pH adjustment. The procedure: In details, ˜5 mg of solids were suspended into 1 mL of each medium with dosing conc. at ˜5 mg/mL. Additional solids were added into the sample to generate suspension if clear solution was obtained. The suspension was equilibrated via stirring (1000 rpm) for 24 hours. The pH of the suspension was adjusted when the final pH shifted above 0.3, and the samples were stirred for another 1.5 hours after pH adjustment. The suspension was centrifuged to obtain precipitate and supernatants. Solubility, purity and pH were tested for the supernatants after filtration, and isolated precipitate was tested by XRPD.
(§5) • 1. pH=3.0 buffer (50 mM HCl+KCl): Weigh 365.39 mg KCl into a 100 mL volumetric flask (VF), and add 0.1 mL 1M HCl into the VF, and dilute to volume with water. • 2. pH=4.0 buffer (50 mM citrate): Weigh 56.74 mg citric acid and 60.18 mg trisodium citrate into a 10 mL volumetric flask, and dilute to volume with water. • 3. pH=5.0 buffer (50 mM citrate) Weigh 11.12 mg citric acid and 95.38 mg trisodium citrate into a 10 mL volumetric flask, and dilute to volume with water. • 4. pH=6.0 buffer (50 mM citrate) Weigh 11.04 mg citric acid and 130.2 mg trisodium citrate into a 10 mL volumetric flask, and dilute to volume with water. • 5. pH=6.0 buffer (50 mM phosphate) Weigh 8.7 mg Na2HPO4 and 52.6 mg NaH2PO4 into a 10 mL volumetric flask, and dilute to volume with water. • 6. pH=7.0 buffer (50 mM phosphate) Weigh 23.47 mg Na2HPO4 and 43.34 mg NaH2PO4into a 10 mL volumetric flask, and dilute to volume with water. • 7. pH=8.0 buffer (50 mM phosphate) Weigh 31.64 mg Na2HPO4 and 67.18 mg NaH2PO4into a 10 mL volumetric flask, and dilute to volume with water.

Data set [8] is described as follows: Equilibrium solubility in pH buffers (3.0-8.0), 20% captisol and water. The format is physicochemical. Conditions: H2O, RT, 24 hrs. The procedure:
Additional solids were added into the sample to generate suspension if clear solution obtained. The suspension was equilibrated via stirring (1000 rpm). The suspension was centrifuged to obtain precipitate and supernatants.
Solubility and pH were tested for the supernatants after filtration, and isolated precipitate was tested by XRPD.
as §5

The nature of data set [9]: pKa test, potentiometric method (pH-metric pKa). Type of data set: physicochemical. Conditions: MeOH cosolvent, Yasuda-Shedlovsky extrapolation. The procedure: (§6) The spectrophotometric method (UV-metric pKa) and potentiometric method (pH-metric pKa) were used for pKa test of Compound (I) freeform.
2. For pH-metric pKa, the pKa values were determined from an examination of the shape of the resultant titration curves and fitting a suitable theoretical model for the compound's ionization behavior onto the titration data.
(§7) The psKa values were extrapolated to 0% organic content using the Yasuda-Shedlovsky extrapolation procedure for pKa values.

The nature of data set [10]: Log D7.4 test, n-octanol/aqueous (pH=7.4) shake flask method. The format is physicochemical. The protocol:
The detailed procedure is summarized below. • 1. Pre-equilibrate n-octanol and aqueous buffer by adding 10 mL n-octanol and 10 mL aqueous buffer into a glass vial and keep it rolling for 24 h. The mutually saturated n-octanol and aqueous buffer are obtained after phase separation. • 2. Weigh approximately 1.0 mg sample into a 3-mL glass vial with 1.0 mL of saturated n-octanol inside (obtained in step 1 above) and accelerate dissolution by ultrasonication. • 3. Add 1.0 mL of complementary saturated aqueous buffer into the vial. • 4. Prepare samples in triplicate. Seal the glass vial and mix on a rotary mixer at 25° C. for 24 h. • 5. The phases are separated after rolling. • 6. The concentrations of the compound in each phase are determined by HPLC. Samples in n-octanol phase are diluted 10 times by adding 100 μL of sample solution and 900 µL of ACN/H2O (v/v, 3:1) diluent and mixed well. • 7. Distribution coefficient, referred to as Dow, is calculated as the concentration of the test compound (both ionized and un-ionized) in the n-octanol phase divided by the corresponding concentration in the aqueous phase.

Data set [11] in a line: pKa test, spectrophotometric method (UV-metric pKa). The format is physicochemical. The protocol:
as §6
1. For UV-metric pKa, the pKa values were determined by monitoring the change in UV absorbance with pH as the compound undergoes ionization.
as §7

As for `CC(=O)NCC1CCN(Cc2cc(Oc3ccc(N4CCN(CCC(=O)O)CC4)nc3)nc(-c3cc(Cl)cc(Cl)c3)c2)CC1` [Compound (I)], the “dose dependence of concentration in plasma and lungs” value in data set [1] (0.1, 0.3, 1 mg/kg, highest level with 1 mg/kg 1 hr post-treatment) is recorded as “dose-dependent effect”. Besides, in data set [1] (after last intranasal dose, depending on the dose), the “persistence of level in plasma and lungs” value is on record as “remained elevated for several hours”. Moreover, in data set [1] (intranasal QD for 5 days, 0.1, 0.3, 1 mg/kg per day), the “detection in BALF” value is given as “much less so in BALF”. In addition, the “detection in plasma and lungs” value in data set [1] (intranasal QD for 5 days, 0.1, 0.3, 1 mg/kg per day, 1-24 h after last dose) was “detectable in the plasma and lungs”. Also, in [2] (highest dose 1 mg/kg/day, one animal, terminal bleed), the “noticeable effect (blood clotting)” value is “apparent increase in blood clotting time in one of the animals”. For the same compound, the tolerability entry in [2] (intranasal QD for 5 consecutive days, 0.1, 0.3, 1 mg/kg per day) is listed as “well tolerated”.
`CC(=O)NCC1CCN(Cc2cc(Oc3ccc(N4CCN(CCC(=O)O)CC4)nc3)nc(-c3cc(Cl)cc(Cl)c3)c2)CC1` [Freeform Type C]: the “form change on drying (XRPD)” value in data set [3] is on record as “transformed to freeform Type A; also recorded: Transferred to freeform Type A after drying at RT”.
In the case of `CC(=O)NCC1CCN(Cc2cc(Oc3ccc(N4CCN(CCC(=O)O)CC4)nc3)nc(-c3cc(Cl)cc(Cl)c3)c2)CC1` [Freeform Type B], the solubility (usually the dissolved amount per volume that the medium holds) at 2 days in [4] (acetone (aw 0), organic solvent or mixture, Acetone, aw 0, RT) was found to be 810 µg/mL (≈ 1.26 mM); in data set [4] (acetone/H2O (986:14), aw 0.2, organic solvent or mixture, Acetone/H2O (986:14), aw 0.2, RT) it was 3960 µg/mL (≈ 6.18 mM). In addition, the “water activity (aw) at which the form was obtained” value in data set [5] is recorded as “below 0.2”. The “Moisture Uptake (DVS)” value in [6] (25° C., from 0% RH to 80% RH) came to 6.3%. Also, in data set [6] (European pharmacopoeia 5.0 criteria, from DVS 0-80% RH at 25° C.), the hygroscopicity result is recorded as “hygroscopic”. The “form change after DVS test (XRPD)” value in [6] (XRPD before and after DVS) was “No form change”.
Regarding `CC(=O)NCC1CCN(Cc2cc(Oc3ccc(N4CCN(CCC(=O)O)CC4)nc3)nc(-c3cc(Cl)cc(Cl)c3)c2)CC1` [Compound (I) freeform], the “S: solubility” value in data set [7] is on record as over 36.9 mg/mL; in data set [8] it was 0.02 mg/mL. For the same compound, the pKa (usually the pH at which an ionisable group is half protonated) was 3.41 in [9] (read-out: pKa 1, pH-metric); 6.99 in data set [9] (read-out: pKa 2, pH-metric); 7.56 in data set [9] (read-out: pKa 3, pH-metric); 1.84 in [11] (36.4% MeOH in water, MeOH concentration of 36.4%, read-out: psKa (apparent pKa 1), UV-metric); 1.56 in [11] (48.2% MeOH in water, MeOH concentration of 48.2%, read-out: psKa (apparent pKa 1), UV-metric); 1.27 in data set [11] (63.9% MeOH in water, MeOH concentration of 63.9%, read-out: psKa (apparent pKa 1), UV-metric). Besides, the pKa in data set [11] (MeOH cosolvent, Yasuda-Shedlovsky extrapolation, psKa out of effective pH range 2-12, reference only, read-out: pKa 1, UV-metric) was 2.21; in data set [11] (MeOH cosolvent, Yasuda-Shedlovsky extrapolation, read-out: pKa 2, UV-metric), 6.98; in data set [11] (MeOH cosolvent, Yasuda-Shedlovsky extrapolation, read-out: pKa 3, UV-metric) it was 7.68. Moreover, the logD at 24 h in [10] (n-octanol/aqueous buffer (pH 7.4), n-octanol/aqueous pH 7.4, three runs, read-out: Average of LogD7.4) worked out at 2.23. Further, in data set [10] (n-octanol/aqueous pH 7.4, single runs 1-3), the LogD7.4 is 2.24 and 2.23. In addition, in data set [10] (n-octanol/aqueous pH 7.4, three runs), the “Average of LogD7.4” value stood at 2.23. For the same compound, the “Final pH in aqueous phase” value in data set [10] (runs 1-3) was determined as 7.3. Also, the “Concentration, Oil (n-octanol phase)” value in data set [10] (shake flask, 25° C., 24 h, runs 1-3) is 1.14 mg/mL and 1.10 mg/mL and 1.07 mg/mL. Further, in data set [10] (shake flask, pH 7.4 buffer, 25° C., 24 h, runs 1-3), the “Concentration, Aqueous” value is 7 µg/mL and 6 µg/mL.
